Data from patent US20170107462A1, “ARRAY OF FABRIC TREATMENT PRODUCTS” (The Procter & Gamble Company, priority 2015, published 2017).

Assay: Blocker Index (BI), expert graders on malodorous fabric swatches
Parameters: key: 0-3 malodor scale; 0 = clean untreated swatch
Description: Blocker materials suitable for use in consumer products of the present invention are chosen for their ability to decrease malodor, while not interfering with perception of a fragrance. Material selection is done by assigning two indices to a test sample material from two reference scales in order to rank odor strengths. The two reference scales are the Fragrance Fidelity Index (FFI) scale and the Blocker Index (BI) scale. The FFI ranks the ability of the test sample material to impart a perceivable odor which could cause interference when combined with another fragrance and the BI ranks the ability of the test sample material to reduce malodor perception. The two methods for assigning the indices to a test sample on the FFI and the BI reference scales are given below.
The first step in the method for assigning a BI to a test sample material on the BI reference scale is to create the BI reference swatches. […] Fabric swatches for this test are white knit polycotton (4 inch×4 inch) swatches from EMC ordered as PC 50/50. The supplier is instructed to strip the swatches first, stripping involves washing twice with a fragrance-free detergent and rinsing three times.
The BI scale contains one clean swatch with no malodor applied. […] These solutions are pipetted to the middle of the swatches. […] After drying for 30 minutes in a vented hood, the swatches are wrapped in aluminum foil to prevent odor contamination to the treated swatch. A clean untreated swatch is also included as the lowest anchor point of reference for malodor strength on the BI scale. The BI reference scale swatches should be used within 0.5 to 12 hours and discarded after 12 hours. The swatches are used as scale anchor points when graders evaluate a test sample(s) and are assigned a Blocker Index (BI) as show in Table 12.
The perfumer/expert grader is asked to rank order swatches according to a scale between 0 and 3.
The reference swatches represent the 0, 1, 2, and 3 BIs on the BI reference scale, Table 12. […]

Question: With `CC(C)CC(=O)O` [isovaleric acid] as the compound, how does the “BI grade of reference swatch, individual Expert Grader” value (“BI grade of reference swatch” below) (stripped swatch with 2 μL 0.08% isovaleric acid) read?
Answer: 2.0

Question: What about the “BI grade of reference swatch” value (stripped swatch with 5 μL 0.08% isovaleric acid) of the same compound?
Answer: 2.0

Question: What about the “BI grade of reference swatch” value (stripped swatch with 20 μL 0.08% isovaleric acid) of the same compound?
Answer: 3.0
